In patent publication US6184209A, “Diabetes treatment” (Alizyme Therapeutics Limited, priority 1996, dated 2001):
Where a SMILES comes first, the peptide text is derived from it.

Legend:
[1] = system: EDL muscles--female mice; assay: 2-deoxy-D-[1-3H]glucose uptake into EDL muscles, female mice; type: cell-based; details: 10^-7 M; for increase in the uptake of 2-deoxy-D-glucose into the muscles (%): normal female mice
Procedure: (§1) Isolated soleus, EDL (extensor digitorum longus) or diaphragm muscles of normal male and female mice were incubated for 30 min at 37° C. in oxygenated Krebs buffer containing 2-deoxy-D-[1-^3 H]glucose. 2-Deoxy-D-glucose is a derivative of D-glucose which is taken up into muscle by carrier-mediated transport and which accumulates in muscle as 2-deoxy-D-glucose-6-phosphate without further metabolism. The tritiated derivative can therefore be used to determine the uptake into muscle of D-glucose (which itself is metabolised). A COOH-terminal (C-terminal) fragment of β-endorphin and an analogue of a β-endorphin fragment were added to the Krebs buffer. These were the C-terminal dipeptide (glycyl-L-glutamine or glycyl-L-glutamic acid) and CH3 CO-Lys-D-Lys-Sar-Glu, a stable analogue of the C-terminal tetrapeptide of β-endorphin. Pyruvate (2 mM) and 2% bovine serum albumen were also present in the bathing medium surrounding the muscles. The extracellular space in the muscles was determined by including L-[1-^14 C] glucose, which is not transported into muscle via the D-glucose membrane carrier.
(§2) At the end of the incubation period, the tissue samples were digested in 1 M NaOH at 90° C. and the radioactivity counted by liquid scintillation counting.
d) EDL muscles--female mice
Following the procedure outlined in Example 1, it was shown that Gly-Gin in a concentration of 10^-7 M caused a 180% increase in 2-deoxy-D-glucoseuptake in EDL muscles of normal female mice, whilst with Gly-Glu there was an 80% increase.

[2] = system: urodele limb; details: in vivo; cited from earlier work
[3] = system: dopamine-depleted rats; details: rat, in vivo; cited from earlier work
[4] = system: Isolated soleus muscles--male mice; assay: 2-deoxy-D-[1-3H]glucose uptake into isolated soleus muscles, male mice; type: cell-based; details: 10^-9 M
Procedure: as §1, §2
a) Isolated soleus muscles--male mice

[5] = system: Isolated soleus muscles--female mice; assay: 2-deoxy-D-[1-3H]glucose uptake into isolated soleus muscles, female mice; type: cell-based; details: 10^-8 M
Procedure: as §1, §2
b) Isolated soleus muscles--female mice

[6] = system: EDL muscles--male mice; assay: 2-deoxy-D-[1-3H]glucose uptake into EDL muscles, male mice; type: cell-based; details: 10^-9 M
Procedure: as §1, §2
c) EDL muscles--male mice

[7] = system: Diaphragm muscles--female mice; assay: 2-deoxy-D-[1-3H]glucose uptake into diaphragm muscles, female mice; type: cell-based; details: 10^-8 M
Procedure: as §1, §2
e) Diaphragm muscles--female mice

[8] = system: subjects with non-insulin dependent diabetes mellitus (type II); details: type II diabetics, cited from earlier work
[9] = 2.5 mg by intravenous bolus injection

Q: For NCC(=O)N[C@@H](CCC(N)=O)C(=O)O [Gly-Gin, glycyl-L-glutamine] (H-Gly-Gln-OH), which “increase in the uptake of 2-deoxy-D-glucose into the muscles (%)” value (“increase in the uptake … (%)” below) [1] is on record?
A: 180%

Q: For NCC(=O)N[C@@H](CCC(=O)O)C(=O)O [Gly-Glu, glycyl-L-glutamic acid] (H-Gly-Glu-OH), which “increase in the uptake … (%)” value [1] is on record?
A: 80%

Q: With “Lys-Lys-Gly-Glu (KKGE; printed: Lys-Lys-Gly-Glu) [MPF]” as the molecule, how does the urodele limb regeneration [2] read?
A: promoting

Q: What about the “turning response of dopamine-depleted rats to D-amphetamine” value [3] of the same molecule?
A: significant reductions

Q: With insulin as the molecule, how does the “increase in the uptake of 2-deoxy-D-glucose into the muscles (fold)” value (“increase in the uptake … (fold)” for short) ([1]; female mice) read?
A: 3.5 fold

Q: What about the “increase in the uptake … (%)” value [1] of the same molecule?
A: 250%

Q: And the “increase in the uptake … (%)” value [4]?
A: 500%

Q: And the “increase in the uptake … (fold)” value [4]?
A: 6 fold

Q: What about the “increase in the uptake … (%)” value [5] of the same molecule?
A: ~100%

Q: What about the “increase in the uptake … (fold)” value [5] of the same molecule?
A: approximately 2 fold

Q: And the “increase in the uptake … (%)” value [6]?
A: 150%

Q: And the “increase in the uptake … (fold)” value [6]?
A: 2.5 fold

Q: What about the “increase in the uptake … (fold)” value [7] of the same molecule?
A: similar

Q: What does the source list for “β-endorphin (YGGFMTSEKSQTPLVTLFKNAIIKNAYKKGE; Beta-endorphin; UniProt P01189 237-267, looked up) [human β-endorphin]”?
A: duration of increments in plasma insulin and glucagon [8, 9]: up to 90 minutes; plasma concentrations of insulin and glucagon [8, 9]: prompt and simultaneous increments; progressive decline in plasma glucose: effect of administration ([8]; administration one hour after start of three hour study period): substantially unaffected
